One test addresses human α9α10 nAChR (Homo sapiens, UniProt Q9GZZ6+Q9UGM1). Description: cell-based. The format is cell-based.
Another test addresses rat α9α10 nAChR (Rattus norvegicus, UniProt P43144+Q9JLB5). Description: cell-based. The format is cell-based. Conditions: α9α10 nAChR IC50 (nM) Rat.

Structures are written as SMILES. Bridge positions count the residues as written; N and C are the ends. Square brackets hold non-standard residues; d marks the D form. Triazole bridges read from a SMILES are 1,4-linked. Peptide text beside a SMILES is read from it. Tyr(3-I) = N[C@@H](Cc1ccc(O)c(I)c1)C(=O)O; Orn(N3) = [N-]=[N+]=NCCC[C@H](N)C(=O)O; NMeY = CN[C@@H](Cc1ccc(O)cc1)C(=O)O; Aha = [N-]=[N+]=NCC[C@H](N)C(=O)O; NMeR = CN[C@@H](CCCNC(=N)N)C(=O)O; Cit = NC(=O)NCCC[C@H](N)C(=O)O; Hpra = C#CCC[C@H](N)C(=O)O; Pra = C#CC[C@H](N)C(=O)O

Sequence of human α9α10 nAChR (Q9UGM1 26-479 limits assumed): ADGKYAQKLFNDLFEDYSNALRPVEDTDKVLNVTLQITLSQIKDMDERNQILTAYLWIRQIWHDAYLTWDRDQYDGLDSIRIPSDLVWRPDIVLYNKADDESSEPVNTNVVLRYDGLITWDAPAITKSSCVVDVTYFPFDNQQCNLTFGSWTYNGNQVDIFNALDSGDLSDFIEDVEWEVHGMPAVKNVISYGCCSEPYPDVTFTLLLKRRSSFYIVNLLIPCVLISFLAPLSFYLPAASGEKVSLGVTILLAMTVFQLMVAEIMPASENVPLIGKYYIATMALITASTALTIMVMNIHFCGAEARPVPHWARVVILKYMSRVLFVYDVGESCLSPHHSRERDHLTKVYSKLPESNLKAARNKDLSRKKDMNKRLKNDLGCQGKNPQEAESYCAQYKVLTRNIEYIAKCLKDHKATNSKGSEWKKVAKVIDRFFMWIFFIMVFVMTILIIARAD
Sequence of human α9α10 nAChR (Q9GZZ6 25-450 limits assumed): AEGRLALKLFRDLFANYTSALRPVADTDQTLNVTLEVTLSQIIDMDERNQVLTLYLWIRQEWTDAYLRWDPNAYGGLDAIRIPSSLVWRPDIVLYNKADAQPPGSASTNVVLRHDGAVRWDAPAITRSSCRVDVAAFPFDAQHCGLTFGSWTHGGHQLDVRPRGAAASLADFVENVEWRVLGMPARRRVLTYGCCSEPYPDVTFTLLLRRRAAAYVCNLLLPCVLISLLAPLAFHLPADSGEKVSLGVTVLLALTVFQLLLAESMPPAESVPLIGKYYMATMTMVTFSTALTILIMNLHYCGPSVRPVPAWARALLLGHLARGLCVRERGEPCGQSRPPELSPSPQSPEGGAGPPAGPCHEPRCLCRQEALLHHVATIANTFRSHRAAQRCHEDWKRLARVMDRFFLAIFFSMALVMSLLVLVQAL
Sequence of rat α9α10 nAChR (P43144 26-479 limits assumed): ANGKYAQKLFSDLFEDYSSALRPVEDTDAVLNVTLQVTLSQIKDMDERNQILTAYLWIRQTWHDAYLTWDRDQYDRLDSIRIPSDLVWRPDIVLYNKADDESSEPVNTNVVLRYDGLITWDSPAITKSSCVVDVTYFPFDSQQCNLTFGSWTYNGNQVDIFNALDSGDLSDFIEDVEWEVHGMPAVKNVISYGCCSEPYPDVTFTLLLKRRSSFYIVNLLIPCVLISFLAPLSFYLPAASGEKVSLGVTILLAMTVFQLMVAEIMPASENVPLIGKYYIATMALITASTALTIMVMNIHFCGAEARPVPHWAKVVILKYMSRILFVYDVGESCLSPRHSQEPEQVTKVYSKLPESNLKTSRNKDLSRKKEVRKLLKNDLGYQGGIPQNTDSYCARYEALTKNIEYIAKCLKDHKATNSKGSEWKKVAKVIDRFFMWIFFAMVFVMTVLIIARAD
Sequence of rat α9α10 nAChR (Q9JLB5 25-447 limits assumed): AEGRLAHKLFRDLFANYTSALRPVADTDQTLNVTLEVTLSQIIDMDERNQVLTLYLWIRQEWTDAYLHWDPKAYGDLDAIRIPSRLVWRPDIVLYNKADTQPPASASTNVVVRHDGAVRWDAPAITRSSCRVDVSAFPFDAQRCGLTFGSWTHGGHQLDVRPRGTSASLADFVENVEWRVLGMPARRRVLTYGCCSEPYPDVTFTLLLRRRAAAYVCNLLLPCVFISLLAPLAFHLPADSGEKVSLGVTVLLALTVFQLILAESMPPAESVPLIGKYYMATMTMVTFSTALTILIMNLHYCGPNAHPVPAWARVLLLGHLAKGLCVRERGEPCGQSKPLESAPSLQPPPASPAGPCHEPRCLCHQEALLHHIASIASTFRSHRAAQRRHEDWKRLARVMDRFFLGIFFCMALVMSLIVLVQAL

Turning to `C[C@@H](O)[C@@H]1NC(=O)[C@@H]2Cc3cn(nn3)CCC[C@@H](C(=O)N(C)[C@@H](CCCNC(=N)N)C(=O)O)NC(=O)[C@H](CCC(N)=O)NC(=O)[C@H](Cc3c[nH]c4ccccc34)NC(=O)[C@H](CCCNC(N)=O)NC(=O)[C@H](CSSC[C@H](NC(=O)CN)C(=O)N2)NC(=O)[C@H](CCCNC(=N)N)NC(=O)[C@@H]2CCCN2C(=O)[C@H](CC(=O)O)NC1=O` [Iv, L-arginine, glycyl-L-cysteinyl-L-alanyl-L-threonyl-L-α-aspartyl-L-prolyl-L-arginyl-L-cysteinyl-N5-(aminocarbonyl)-L-ornithyl-L-tryptophyl-L-glutaminyl-L-norvalyl-N-methyl-cyclic (2→8)-disulfide-cyclic 3^3,12^5-(1H-1,2,3-triazole-4,1-diyl)] (H-GC[Pra]TDPRC[Cit]WQ[Orn(N3)][NMeR]-OH; disulfide 2-8; triazole 3-12), the values for the IC50 against human α9α10 nAChR and against rat α9α10 nAChR were around 100 nM and below 30 nM, respectively.
For `C[C@@H](O)[C@@H]1NC(=O)[C@@H]2CCc3cn(nn3)CCC[C@@H](C(=O)N[C@@H](Cc3ccc(O)cc3)C(=O)O)NC(=O)[C@H](CCC(N)=O)NC(=O)[C@H](Cc3c[nH]c4ccccc34)NC(=O)[C@H](CCCNC(N)=O)NC(=O)[C@H](CSSC[C@H](NC(=O)CN)C(=O)N2)NC(=O)[C@H](CCCNC(=N)N)NC(=O)[C@@H]2CCCN2C(=O)[C@H](CC(=O)O)NC1=O` [Ig, L-tyrosine, glycyl-L-cysteinyl-(2S)-2-aminobutanoyl-L-threonyl-L-α-aspartyl-L-prolyl-L-arginyl-L-cysteinyl-N5-(aminocarbonyl)-L-ornithyl-L-tryptophyl-L-glutaminyl-L-norvalyl-cyclic (2→8)-disulfide-cyclic 3^4,12^5-(1H-1,2,3-triazole-4,1-diyl)] (H-GC[Hpra]TDPRC[Cit]WQ[Orn(N3)]Y-OH; disulfide 2-8; triazole 3-12), in that order: 19 nM and 22 ± 1.1 nM.
Taken in the same sequence, the figures for `C[C@@H](O)[C@@H]1NC(=O)[C@@H]2Cc3cn(nn3)CCC[C@@H](C(=O)N(C)[C@@H](Cc3ccc(O)cc3)C(=O)O)NC(=O)[C@H](CCC(N)=O)NC(=O)[C@H](Cc3c[nH]c4ccccc34)NC(=O)[C@H](CCCNC(N)=O)NC(=O)[C@H](CSSC[C@H](NC(=O)CN)C(=O)N2)NC(=O)[C@H](CCCNC(=N)N)NC(=O)[C@@H]2CCCN2C(=O)[C@H](CC(=O)O)NC1=O` [Ir, L-tyrosine, glycyl-L-cysteinyl-L-alanyl-L-threonyl-L-α-aspartyl-L-prolyl-L-arginyl-L-cysteinyl-N5-(aminocarbonyl)-L-ornithyl-L-tryptophyl-L-glutaminyl-L-norvalyl-N-methyl-cyclic (2→8)-disulfide-cyclic 3^3,12^5-(1H-1,2,3-triazole-4,1-diyl)] (H-GC[Pra]TDPRC[Cit]WQ[Orn(N3)][NMeY]-OH; disulfide 2-8; triazole 3-12) were around 100 nM and 31 ± 0.7 nM.
For `C[C@@H](O)[C@@H]1NC(=O)[C@@H]2Cc3cn(nn3)CCC[C@@H](C(=O)N[C@@H](Cc3ccc(O)cc3)C(=O)O)NC(=O)[C@H](CCC(N)=O)NC(=O)[C@H](Cc3ccc(O)c(I)c3)NC(=O)[C@H](CCCNC(N)=O)NC(=O)[C@H](CSSC[C@H](NC(=O)CN)C(=O)N2)NC(=O)[C@H](CCCNC(=N)N)NC(=O)[C@@H]2CCCN2C(=O)[C@H](CC(=O)O)NC1=O` [Ib, L-tyrosine, glycyl-L-cysteinyl-L-alanyl-L-threonyl-L-α-aspartyl-L-prolyl-L-arginyl-L-cysteinyl-N5-(aminocarbonyl)-L-ornithyl-L-3-iodotyrosyl-L-glutaminyl-L-norvalyl-cyclic (2→8)-disulfide-cyclic 3^3,12^5-(1H-1,2,3-triazole-4,1-diyl)] (H-GC[Pra]TDPRC[Cit][Tyr(3-I)]Q[Orn(N3)]Y-OH; disulfide 2-8; triazole 3-12), in that order: 37 ± 1.3 nM and 7 nM.
In the case of `C[C@@H](O)[C@@H]1NC(=O)[C@@H]2CCc3cn(nn3)CC[C@@H](C(=O)N[C@@H](Cc3ccc(O)cc3)C(=O)O)NC(=O)[C@H](CCC(N)=O)NC(=O)[C@H](Cc3c[nH]c4ccccc34)NC(=O)[C@H](CCCNC(N)=O)NC(=O)[C@H](CSSC[C@H](NC(=O)CN)C(=O)N2)NC(=O)[C@H](CCCNC(=N)N)NC(=O)[C@@H]2CCCN2C(=O)[C@H](CC(=O)O)NC1=O` [Ih, L-tyrosine, glycyl-L-cysteinyl-(2S)-2-aminobutanoyl-L-threonyl-L-α-aspartyl-L-prolyl-L-arginyl-L-cysteinyl-N5-(aminocarbonyl)-L-ornithyl-L-tryptophyl-L-glutaminyl-L-(2S)-2-aminobutanoyl-cyclic (2→8)-disulfide-cyclic 3^4,12^4-(1H-1,2,3-triazole-4,1-diyl)] (H-GC[Hpra]TDPRC[Cit]WQ[Aha]Y-OH; disulfide 2-8; triazole 3-12), the IC50 against human α9α10 nAChR came out at 8 ± 1.5 nM; against rat α9α10 nAChR, 8.5 ± 1.1 nM.
As for `C[C@@H](O)[C@@H]1NC(=O)[C@@H]2CCCc3cn(nn3)C[C@@H](C(=O)N[C@@H](Cc3ccc(O)cc3)C(=O)O)NC(=O)[C@H](CCC(N)=O)NC(=O)[C@H](Cc3c[nH]c4ccccc34)NC(=O)[C@H](CCCNC(N)=O)NC(=O)[C@H](CSSC[C@H](NC(=O)CN)C(=O)N2)NC(=O)[C@H](CCCNC(=N)N)NC(=O)[C@@H]2CCCN2C(=O)[C@H](CC(=O)O)NC1=O` [Ij, L-tyrosine, glycyl-L-cysteinyl-(2S)-2-aminopentanoyl-L-alanyl-L-threonyl-L-α-aspartyl-L-prolyl-L-arginyl-L-cysteinyl-N5-(aminocarbonyl)-L-ornithyl-L-3-iodotyrosyl-L-glutaminyl-L-alanyl-cyclic (2→8)-disulfide-cyclic 3^5,12^3-(1H-1,2,3-triazole-4,1-diyl)], the IC50 is 152 ± 71 nM against human α9α10 nAChR and 69 ± 8.5 nM against rat α9α10 nAChR.
For `C[C@@H](O)[C@@H]1NC(=O)[C@@H]2CCn3cc(nn3)CC[C@@H](C(=O)N[C@@H](Cc3ccc(O)cc3)C(=O)O)NC(=O)[C@H](CCC(N)=O)NC(=O)[C@H](Cc3c[nH]c4ccccc34)NC(=O)[C@H](CCCNC(N)=O)NC(=O)[C@H](CSSC[C@H](NC(=O)CN)C(=O)N2)NC(=O)[C@H](CCCNC(=N)N)NC(=O)[C@@H]2CCCN2C(=O)[C@H](CC(=O)O)NC1=O` [Ii, L-tyrosine, glycyl-L-cysteinyl-(2S)-2-aminobutanoyl-L-threonyl-L-α-aspartyl-L-prolyl-L-arginyl-L-cysteinyl-N5-(aminocarbonyl)-L-ornithyl-L-tryptophyl-L-glutaminyl-L-(2S)-2-aminobutanoyl-cyclic (2→8)-disulfide-cyclic 3^4,12^4-(1H-1,2,3-triazole-1,4-diyl)] (H-GC[Aha]TDPRC[Cit]WQ[Hpra]Y-OH; disulfide 2-8; triazole 3-12), in that order: 3.4 ± 1.4 nM and 1.6 ± 0.6 nM.

For orientation: IC50 means the concentration at which inhibition is half-maximal.
